Measured values: US9738634B2, “Heterocyclic amide compound and herbicide” (SYNGENTA PARTICIPATIONS AG, priority 2013, dated 2017)

Key:
Type in all cases: in vivo
[1] = test system: barnyard grass; experiment: Test Example 1: weedkilling efficacy, preemergent weed treatment in the submerged state; A: barnyard grass; conditions: treatment dosage 252 g/ha
Outline: (§1)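 Emulsion diluted with water to the specified per-hectare dosage is applied onto flood water (4 cm) over alluvial soil on the sowing day, with barnyard grass, bulrush and pondweed seeded and rice (2.5-leaf) transplanted; plants grow at 25–30 °C and are rated at 3 weeks.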

[2] = test system: bulrush; experiment: Test Example 1: weedkilling efficacy, preemergent weed treatment in the submerged state; B: bulrush; conditions: treatment dosage 252 g/ha
Outline: as §1

[3] = test system: oval-leafed pondweed; experiment: Test Example 1: weedkilling efficacy, preemergent weed treatment in the submerged state; C: oval-leafed pondweed; conditions: treatment dosage 252 g/ha
Outline: as §1

[4] = test system: transplanted rice; experiment: Test Example 1: preemergent weed treatment in the submerged state, effect on crop; a: transplanted rice; conditions: treatment dosage 252 g/ha
Outline: as §1

[5] = test system: barnyard grass; experiment: Test Example 2: weedkilling efficacy, growth period weed treatment in the submerged state; A: barnyard grass; conditions: treatment dosage 252 g/ha
Outline: (§2)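 First, alluvial soil in pots is flooded to 4 cm and mixed seed is sown. Next, plants grow in a greenhouse at 25 to 30° C until the 1-2 leaf stage. Then diluted emulsion is applied onto the water surface at the given g/ha rate, and injury is assessed after 3 weeks.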

[6] = test system: bulrush; experiment: Test Example 2: weedkilling efficacy, growth period weed treatment in the submerged state; B: bulrush; conditions: treatment dosage 252 g/ha
Outline: as §2

[7] = test system: oval-leafed pondweed; experiment: Test Example 2: weedkilling efficacy, growth period weed treatment in the submerged state; C: oval-leafed pondweed; conditions: treatment dosage 252 g/ha
Outline: as §2

[8] = test system: crabgrass; experiment: Test Example 3: weedkilling efficacy through soil treatment; D: crabgrass; conditions: treatment dosage 315 g/ha
Outline: (§3)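 Crop and weed responses were judged three weeks after a uniform surface spray of the water-diluted emulsion at the given g/ha rate. Seeds sat beneath about 1.5 cm of sterilized diluvial soil, and boxes stood in a greenhouse at 25 to 30° C.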

[9] = test system: green foxtail; experiment: Test Example 3: weedkilling efficacy through soil treatment; E: green foxtail; conditions: treatment dosage 315 g/ha
Outline: as §3

[10] = test system: wild oat; experiment: Test Example 3: weedkilling efficacy through soil treatment; G: wild oat; conditions: treatment dosage 315 g/ha
Outline: as §3

[11] = test system: black-grass; experiment: Test Example 3: weedkilling efficacy through soil treatment; H: black-grass; conditions: treatment dosage 315 g/ha
Outline: as §3

[12] = test system: Italian ryegrass; experiment: Test Example 3: weedkilling efficacy through soil treatment; I: Italian ryegrass; conditions: treatment dosage 315 g/ha
Outline: as §3

[13] = test system: Indian mallow; experiment: Test Example 3: weedkilling efficacy through soil treatment; K: Indian mallow; conditions: treatment dosage 315 g/ha
Outline: as §3

[14] = test system: redroot pigweed; experiment: Test Example 3: weedkilling efficacy through soil treatment; L: redroot pigweed; conditions: treatment dosage 315 g/ha
Outline: as §3

[15] = test system: fig-leafed goosefoot; experiment: Test Example 3: weedkilling efficacy through soil treatment; M: fig-leafed goosefoot; conditions: treatment dosage 315 g/ha
Outline: as §3

[16] = test system: chickweed; experiment: Test Example 3: weedkilling efficacy through soil treatment; N: chickweed; conditions: treatment dosage 315 g/ha
Outline: as §3

[17] = test system: catchweed; experiment: Test Example 3: weedkilling efficacy through soil treatment; O: catchweed; conditions: treatment dosage 315 g/ha
Outline: as §3

[18] = test system: birds-eye speedwell; experiment: Test Example 3: weedkilling efficacy through soil treatment; p: birds-eye speedwell; conditions: treatment dosage 315 g/ha
Outline: as §3

[19] = test system: directly sown rice; experiment: Test Example 3: soil treatment, effect on crop; b: directly sown rice; conditions: treatment dosage 315 g/ha
Outline: as §3

[20] = test system: corn; experiment: Test Example 3: soil treatment, effect on crop; c: corn; conditions: treatment dosage 315 g/ha
Outline: as §3

[21] = test system: soybean; experiment: Test Example 3: soil treatment, effect on crop; d: soybean; conditions: treatment dosage 315 g/ha
Outline: as §3

[22] = test system: wheat; experiment: Test Example 3: soil treatment, effect on crop; e: wheat; conditions: treatment dosage 315 g/ha
Outline: as §3

[23] = test system: crabgrass; experiment: Test Example 4: weedkilling efficacy by foliar treatment; D: crabgrass; conditions: treatment dosage 315 g/ha
Outline: (§4)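 Seeds are spot-sown into sterilized diluvial soil and covered with about 1.5 cm of soil. After 14 days' greenhouse growth at 25 to 30° C, plants are sprayed on stems and leaves with diluted emulsion at the stated g/ha rate, then scored at 3 weeks.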

[24] = test system: green foxtail; experiment: Test Example 4: weedkilling efficacy by foliar treatment; E: green foxtail; conditions: treatment dosage 315 g/ha
Outline: as §4

[25] = test system: wild oat; experiment: Test Example 4: weedkilling efficacy by foliar treatment; G: wild oat; conditions: treatment dosage 315 g/ha
Method: Testing of Weedkilling Efficacy by Foliar Treatment
Sterilized diluvial soil was introduced into 21 cm long, 13 cm wide, 7 cm deep plastic boxes, and seeds of crabgrass, green foxtail, barnyard grass, wild oat, black-grass, Italian ryegrass, common wind-grass, Indian mallow, redroot pigweed, fig-leafed goosefoot, chickweed, catchweed, birds-eye speedwell, corn, soybean, rice, wheat, beet and rapeseed were each spot-sown, and covered with about 1.5 cm of soil, then the plants were grown in a greenhouse at 25 to 30° C.
After they had grown for 14 days, emulsions of compounds of the present invention prepared according to compounding example 2 were diluted with water to give the specified dosages, and applied uniformly onto the stem and leaf parts with a small sprayer. 3 weeks after the pesticide treatment the effect on each type of plant was investigated on the basis of the assessment criteria of test example 1.
A: barnyard grass, B: bulrush, C: oval-leafed pondweed, D: crabgrass, E: green foxtail, F: barnyard grass, G: wild oat, H: black-grass, I: Italian ryegrass, J: common wind-grass, K: Indian mallow, L: redroot pigweed, M: fig-leafed goosefoot, N: chickweed, O: catchweed, p: birds-eye speedwell, a: transplanted rice, b: directly sown rice, c: corn, d: soybean, e: wheat, f: beet, g: rapeseed
Further, pesticide dosage (g/ha) indicates the concentration regulated such that treatment was with only the stated number of grams (g), when calculated per hectare (ha).

[26] = test system: black-grass; experiment: Test Example 4: weedkilling efficacy by foliar treatment; H: black-grass; conditions: treatment dosage 315 g/ha
Outline: as §4

[27] = test system: Italian ryegrass; experiment: Test Example 4: weedkilling efficacy by foliar treatment; I: Italian ryegrass; conditions: treatment dosage 315 g/ha
Outline: as §4

[28] = test system: Indian mallow; experiment: Test Example 4: weedkilling efficacy by foliar treatment; K: Indian mallow; conditions: treatment dosage 315 g/ha
Outline: as §4

[29] = test system: redroot pigweed; experiment: Test Example 4: weedkilling efficacy by foliar treatment; L: redroot pigweed; conditions: treatment dosage 315 g/ha
Outline: as §4

[30] = test system: fig-leafed goosefoot; experiment: Test Example 4: weedkilling efficacy by foliar treatment; M: fig-leafed goosefoot; conditions: treatment dosage 315 g/ha
Outline: as §4

[31] = test system: chickweed; experiment: Test Example 4: weedkilling efficacy by foliar treatment; N: chickweed; conditions: treatment dosage 315 g/ha
Outline: as §4

[32] = test system: catchweed; experiment: Test Example 4: weedkilling efficacy by foliar treatment; O: catchweed; conditions: treatment dosage 315 g/ha
Outline: as §4

[33] = test system: directly sown rice; experiment: Test Example 4: foliar treatment, effect on crop; b: directly sown rice; conditions: treatment dosage 315 g/ha
Outline: as §4

[34] = test system: corn; experiment: Test Example 4: foliar treatment, effect on crop; c: corn; conditions: treatment dosage 315 g/ha
Outline: as §4

[35] = test system: soybean; experiment: Test Example 4: foliar treatment, effect on crop; d: soybean; conditions: treatment dosage 315 g/ha
Outline: as §4

[36] = test system: wheat; experiment: Test Example 4: foliar treatment, effect on crop; e: wheat; conditions: treatment dosage 315 g/ha
Outline: as §4

[37] = test system: beet; experiment: Test Example 4: foliar treatment, effect on crop; f: beet; conditions: treatment dosage 315 g/ha
Outline: as §4

SMILES: CC1=C(c2ccccc2)C(=O)N(C(C)(C)C(=O)Nc2cccc(C(F)(F)F)n2)CO1 [B-2-58]
- A (barnyard grass) weedkilling efficacy grade [1]: 5 (weed kill ratio 90% or more, (practically complete withering))
- B (bulrush) weedkilling efficacy grade [2]: 5 (weed kill ratio 90% or more, (practically complete withering))
- C (oval-leafed pondweed) weedkilling efficacy grade [3]: 5 (weed kill ratio 90% or more, (practically complete withering))
- a (transplanted rice) effect on crop grade [4]: 0 (weed kill ratio 5% or less (practically no effect))
- A (barnyard grass) weedkilling efficacy grade [5]: 3 (weed kill ratio 40% or more, less than 70%)
- B (bulrush) weedkilling efficacy grade [6]: 5 (weed kill ratio 90% or more, (practically complete withering))
- C (oval-leafed pondweed) weedkilling efficacy grade [7]: 4 (weed kill ratio 70% or more, less than 90%)
- D (crabgrass) weedkilling efficacy grade [8]: 5 (weed kill ratio 90% or more, (practically complete withering))
- E (green foxtail) weedkilling efficacy grade [9]: 5 (weed kill ratio 90% or more, (practically complete withering))
- G (wild oat) weedkilling efficacy grade [10]: 3 (weed kill ratio 40% or more, less than 70%)
- H (black-grass) weedkilling efficacy grade [11]: 4 (weed kill ratio 70% or more, less than 90%)
- I (Italian ryegrass) weedkilling efficacy grade [12]: 5 (weed kill ratio 90% or more, (practically complete withering))
- K (Indian mallow) weedkilling efficacy grade [13]: 1 (weed kill ratio 5% or more, less than 20%)
- L (redroot pigweed) weedkilling efficacy grade [14]: 3 (weed kill ratio 40% or more, less than 70%)
- M (fig-leafed goosefoot) weedkilling efficacy grade [15]: 4 (weed kill ratio 70% or more, less than 90%)
- N (chickweed) weedkilling efficacy grade [16]: 4 (weed kill ratio 70% or more, less than 90%)
- O (catchweed) weedkilling efficacy grade [17]: 0 (weed kill ratio 5% or less (practically no effect))
- P (birds-eye speedwell) weedkilling efficacy grade [18]: 5 (weed kill ratio 90% or more, (practically complete withering))
- b (directly sown rice) effect on crop grade [19]: 3 (weed kill ratio 40% or more, less than 70%)
- c (corn) effect on crop grade [20]: 1 (weed kill ratio 5% or more, less than 20%)
- d (soybean) effect on crop grade [21]: 0 (weed kill ratio 5% or less (practically no effect))
- e (wheat) effect on crop grade [22]: 0 (weed kill ratio 5% or less (practically no effect))
- D (crabgrass) weedkilling efficacy grade [23]: 5 (weed kill ratio 90% or more, (practically complete withering))
- E (green foxtail) weedkilling efficacy grade [24]: 5 (weed kill ratio 90% or more, (practically complete withering))
- G (wild oat) weedkilling efficacy grade [25]: 3 (weed kill ratio 40% or more, less than 70%)
- H (black-grass) weedkilling efficacy grade [26]: 5 (weed kill ratio 90% or more, (practically complete withering))
- I (Italian ryegrass) weedkilling efficacy grade [27]: 5 (weed kill ratio 90% or more, (practically complete withering))
- K (Indian mallow) weedkilling efficacy grade [28]: 3 (weed kill ratio 40% or more, less than 70%)
- L (redroot pigweed) weedkilling efficacy grade [29]: 3 (weed kill ratio 40% or more, less than 70%)
- M (fig-leafed goosefoot) weedkilling efficacy grade [30]: 3 (weed kill ratio 40% or more, less than 70%)
- N (chickweed) weedkilling efficacy grade [31]: 3 (weed kill ratio 40% or more, less than 70%)
- O (catchweed) weedkilling efficacy grade [32]: 1 (weed kill ratio 5% or more, less than 20%)
- b (directly sown rice) effect on crop grade [33]: 4 (weed kill ratio 70% or more, less than 90%)
- c (corn) effect on crop grade [34]: 3 (weed kill ratio 40% or more, less than 70%)
- d (soybean) effect on crop grade [35]: 3 (weed kill ratio 40% or more, less than 70%)
- e (wheat) effect on crop grade [36]: 1 (weed kill ratio 5% or more, less than 20%)
- f (beet) effect on crop grade [37]: 4 (weed kill ratio 70% or more, less than 90%)
